Reference: ChEMBL document CHEMBL3507680, “University of Dundee, Gates Library screen for HepG2 cell viability”

Test: Human HepG2 cell viability assay in 384 well format
Assay type: toxicity, cell-based
Set-up: dose 125 nL, time 70.5 hour; concentration not given beside the values
Details: HepG2 cells, read-out: Inhibition

| SMILES | cytotoxicity at 70.5 h |
| --- | --- |
| Cc1nc(COC[C@@H]2CC[C@H]3[C@H](CCN3C(=O)C3CC3)O2)cs1 | -7.97% |
| CC1=N[C@@]2(CC[C@@H]3CN(S(C)(=O)=O)C[C@@H]32)C(=O)N1CC(C)C | -15.6% |
| CCN1C(=O)[C@]2(CC[C@@H]3CN(S(=O)(=O)CC(C)C)C[C@@H]32)N=C1C | -12.6% |
| Cc1nnc([C@@H]2CC[C@@H]3[C@@H](CCN3S(C)(=O)=O)O2)o1 | -10.9% |
| CN(C)CC(=O)N1Cc2nc(C(=O)NCc3ccccc3)oc2C1 | 13% |
| CCS(=O)(=O)N1C[C@H]2CC[C@@]3(N=C(C)N(CC(C)C)C3=O)[C@H]2C1 | -10.8% |
| CC(=O)N1Cc2nc(C(=O)NCCc3cccnc3)oc2C1 | -6.92% |
| CCN1Cc2c(C(=O)NC(C)C)ncn2-c2ccccc2S1(=O)=O | -16.2% |
| CC(=O)N1CC[C@@H]2O[C@@H](COCc3csc(C)n3)CC[C@@H]21 | 12% |
| CCN1C(=O)CO[C@@H]2CN(C(=O)C3CCOCC3)C[C@H]21 | -6.45% |
| CN1CCN(Cc2cnc3n2CCN(C(=O)c2cscn2)C3)CC1 | -3% |
| Cn1cc(CN2Cc3cn(C)nc3C(COCC3CC3)C2)cn1 (stereo not drawn) | -5.92% |
| Cc1noc([C@H]2C[C@H]3CN(C(=O)C4CCOCC4)CC[C@@H]3O2)n1 | -12.9% |
| O=C1CC2(CCN(Cc3ncc[nH]3)CC2)CN1Cc1cc(F)cc(F)c1 | -3.59% |
| O=C(O)[C@@H]1CN(C(=O)CSCC2CC2)C[C@H]1c1ccncc1 | 1.26% |
| COc1cccc2c1OCC(Cc1cc(C(N)=O)ccn1)C2 (stereo not drawn) | 26% |
| CNCC(=O)N1CCCC1c1nc(C(C)C)no1 (stereo not drawn) | -7.36% |
| COc1cccc([C@H]2CN(C(=O)c3scc4c3CCCC4)C[C@@H]2N)c1 | -12% |
| COc1ccccc1CN(Cc1cccnc1)Cc1nccs1 | 9.35% |
| Cc1cc(C)n(CCCN(C)c2cc(C3CC3)ncn2)n1 | -7.51% |
| Cn1cc(CN(C(=O)c2ccc(O)c(Cl)c2)C2CC2)cn1 | -14.8% |
| OC1(CN2CCCCC2)CCN(c2cccc(C(F)(F)F)n2)C1 (stereo not drawn) | -14.1% |

| SMILES | cytotoxicity at 70.5 h |
| --- | --- |
| COCCNc1cc(-c2cccc(C(=O)O)c2C)c2cc[nH]c2n1 | -11.2% |
| COc1ccccc1-c1ncc(CN2CCCC(CCC(N)=O)C2)s1 (stereo not drawn) | -10.1% |
| COc1ccc2cc(C3CN(C(=O)COC(C)C)CCO3)ccc2c1 (stereo not drawn) | -2.81% |
| Cc1ccc([C@@H]2CN(C(=O)c3ccon3)C[C@H]2NC(=O)C2CC2)cc1 | -0.162% |
| Cc1ncc(CC(=O)N2CCCCC2CCN2CCCC2)c(=O)[nH]1 (stereo not drawn) | -3.87% |
| CCNC(=O)c1ccnc(N2CCCC(COc3ccccc3C)C2)c1 (stereo not drawn) | -21.9% |
| CCNc1ncc(C(=O)N[C@@H](C)[C@H](O)c2ccccc2)cn1 | -2.67% |
| O=C(CCC1CCN(C(=O)c2csnn2)CC1)NCc1cccc(Cl)c1 | 7.85% |
| CC(CCCC(C)(C)O)Nc1ccc(-c2nccn2C)nn1 (stereo not drawn) | 0.443% |
| CNC(=O)C1CCN(c2ncnc3c2CCN(C(=O)C2CC2)C3)C1 (stereo not drawn) | -5.76% |
| CC(C)c1cc(C(=O)NCCn2nnc3ccccc32)no1 | 41.3% |
| CCN(CC)CC(=O)NCc1cccnc1-n1cnc2ccccc21 | -3.36% |
| COc1ccc2c(c1)C(C(=O)N(C)CCn1ccnc1C)CC(=O)N2 (stereo not drawn) | -3.22% |
| CCOc1ccccc1-n1c(C2CCC2)n[nH]c1=O | -18.9% |
| Cc1noc(C)c1C1CCCN1CCC(=O)N1CCc2ccccc2C1 (stereo not drawn) | -13.3% |
| NCC1CCCN(c2nc(-c3ccccc3)nc3c2CCNCC3)C1 (stereo not drawn) | 5.19% |
| COCC1CCN(C(=O)c2cn(Cc3ccccc3C(F)(F)F)nn2)C1 (stereo not drawn) | -21.7% |
| CC(=O)N1CCCN(C(=O)Nc2ccccc2N2CCOC2=O)CC1 | -4.99% |
| O=C(CC1C=CCC1)N1CCc2ncnc(NCc3ccon3)c2CC1 (stereo not drawn) | 23.6% |
| CCCN1CCC(N2CCN(c3cc(C)nc(C)c3)CC2)CC1 | 5.6% |
| O=C1CCC2(CCCN(C(=O)c3ccc[nH]3)C2)CN1CCc1c[nH]cn1 (stereo not drawn) | 16.9% |
| N#Cc1c(N)nc2c(c1-c1cnc(N3CCCC3)nc1)COCC2 | -5.19% |

| SMILES | cytotoxicity at 70.5 h |
| --- | --- |
| CCn1ncnc1C(C)NC(=O)Cc1cc2c(cc1Cl)OCCO2 (stereo not drawn) | 1.43% |
| COCCNS(=O)(=O)c1cccc2c1CN(C(=O)c1ccoc1)CC2 | -10.7% |
| Cc1ccc(CN(C)Cc2nc3ccc(F)cc3[nH]2)cn1 | -0.998% |
| Cc1cc(C2CCCN2Cc2ccc(C(=O)Nc3nccs3)cc2)on1 (stereo not drawn) | -2.76% |
| Cn1ccnc1CCC1CCCCN1Cc1nccn1C (stereo not drawn) | 14.9% |
| CC(C)CC(C)NC1CCN(c2cccc(-c3cscn3)c2)CC1 (stereo not drawn) | -8.68% |
| COc1ccc(CCCN2C(=O)O[C@@H]3CN(C4CCOCC4)C[C@@H]32)cc1 | -3.64% |
| CSCC(=O)N(C)Cc1noc(-c2ccccc2)n1 | -9.48% |
| CCN1CC(CN(C)Cc2nc(-c3cccc(C)c3)oc2C)CC1=O (stereo not drawn) | 28.2% |
| Cc1nc2cc(NC(=O)Cn3ncc(N4CCCC4)cc3=O)ccc2s1 | -4.89% |
| Cc1c[nH]c(CN2CCOC(c3ccc(F)cc3)C2)c(C)c1=O (stereo not drawn) | -3.86% |
| O=C(CC(F)(F)F)N1CCCC(c2nccn2Cc2ccncc2)C1 (stereo not drawn) | -6.22% |
| CC(C)CN1CC(c2nc(-c3cccc(F)c3)c[nH]2)CC1=O (stereo not drawn) | -7.31% |
| CC(=O)N1CCOC(Cc2cccc(C(F)(F)F)c2)C1 (stereo not drawn) | -4.91% |
| Cc1csc(N2CCN(C3CCc4ccccc4C3)CC2)n1 (stereo not drawn) | 13% |
| CN(C)Cc1csc(-c2nccn2CCc2cccnc2)c1 | -8% |
| CCCc1nnc2sc(C3CCN(CC)CC3)nn12 | -13.4% |
| COc1ccc2c(c1)OCC(Cc1ccc(N(C)C)nc1)C2 (stereo not drawn) | -4.83% |
| N#CC1(c2ccccc2)CCN(C(=O)CN2C(=O)CCNC2=O)CC1 | -0.486% |
| O=C1O[C@@H]2CN(c3ccncc3)C[C@@H]2N1CCCc1ccc(F)cc1 | -6.08% |
| CN1CC2(CCN(C(=O)c3cc(-n4cccn4)ccc3Cl)CC2)OC1=O | 7.23% |
| CCOC(=O)c1n[nH]cc1CN1CCOC(Cc2ccccc2)C1 (stereo not drawn) | 0.539% |

| SMILES | cytotoxicity at 70.5 h |
| --- | --- |
| O=C(c1ccc(Cn2cnnn2)cc1)N1CC[C@H](CO)[C@H](O)C1 | -8.21% |
| c1cncc(CNc2ncnc3c2CCN(Cc2ccsc2)CC3)c1 | -5.06% |
| CCCc1nc(C)cc(NCCc2nnc(N)s2)n1 | -12.9% |
| CCSCC(C)NCc1cc(-c2ccco2)on1 (stereo not drawn) | -10.3% |
| Cc1nc(O)cc(CCNc2nccc(CCC(F)(F)F)n2)n1 | -8.71% |
| Cc1ccccc1CN1CCN(C(=O)CCn2ccccc2=O)CC1 | -12.1% |
| O=C1OCCN1Cc1cccc(C(F)(F)F)c1F | -10.3% |
| CCCn1c(C)c(CC(=O)NCC(C)O)c2c1CC(C)(C)CC2=O (stereo not drawn) | 2.45% |
| Cc1cc(N(C)Cc2ncc[nH]2)nc(-c2cccnc2)n1 | -11.2% |
| CC(C)(CN1C[C@H](Nc2ncccn2)[C@@H](C2CC2)C1)N1CCOCC1 | -11.6% |
| CCc1ncc(C(=O)N(C)CCc2nc3cc(OC)ccc3[nH]2)cn1 | 11.2% |
| Cc1cc(C(=O)NCCc2cn3nc(C)sc3n2)c(C)o1 | -5.61% |
| Cc1ccc(C(=O)O)cc1CNC(=O)CN1CC(C)(C)[C@@](C)(O)C1 | -6.75% |
| O=C(NCCCOc1cccnc1)c1cn(CCc2ccccc2)nn1 | -7.58% |
| OC1(Cn2ccnc2)CCN(C[C@]2(O)CCCN3CCCC[C@@H]32)CC1 | 11.3% |
| Cc1ccc(CN2C[C@H]3OC(=O)N(Cc4ccccn4)[C@H]3C2)o1 | 2.3% |
| Cc1ccc(C(=O)N2CCC(c3nccn3Cc3ccncc3)CC2)s1 | -8.45% |
| CCN1CCC(CC(=O)NCCc2nc(O)cc(O)n2)CC1 | 16.1% |
| CCN(Cc1cnn(C)c1)C[C@H]1CC[C@@H](Cc2ccc(C)nc2)O1 | -16.5% |
| c1ncc(-c2cn(CCSc3cnn[nH]3)nn2)cn1 | -6.48% |
| CCOCc1nc2c(c(N3CCCn4nc(C)cc4C3)n1)CCNCC2 | 23.6% |
| CCCc1cc(N2CCC(NCC3(O)CCN(C)CC3)CC2)nc(C)n1 | -6.43% |

| SMILES | cytotoxicity at 70.5 h |
| --- | --- |
| CN(Cc1cc2cc(F)ccc2[nH]1)C(=O)C1CC(=O)N(C2CC2)C1 (stereo not drawn) | -2.65% |
| CCc1nc(N)sc1C(=O)N1CCC(c2cc(O)nc(C)n2)CC1 | 20.6% |
| CC(C)CN1CCN(Cc2nc3c(s2)CCCC3)[C@H]2CS(=O)(=O)C[C@H]21 | 10.7% |
| N#Cc1cnc(N2Cc3cnn(Cc4ccc(F)cc4)c3C2)nc1N | -6.63% |
| Cc1c(C(C)NC2CSCCSC2)cnn1-c1ccc(F)cc1F (stereo not drawn) | -9.32% |
| CN1C[C@H]2CC[C@@H]1CN(C(=O)COCc1nc3cc(F)ccc3[nH]1)C2 | 27.3% |
| COC(C)(C)CC(C)NCc1nncn1C1CCCCC1 (stereo not drawn) | -7.83% |
| O=C1OC2(CCNCC2)CN1CC(=O)N1CCC1c1cccs1 (stereo not drawn) | -6.81% |
| Cc1nc(CC(C)C)cc(C(=O)N2C[C@@H](CN(C)C)[C@@H](CO)C2)n1 | 6.25% |
| CCc1nc(C)c(-c2nccn2CC2CCCCO2)[nH]1 (stereo not drawn) | -10.5% |
| c1cc2c(cc1Cn1cc(C3CCCNC3)nn1)CCCO2 (stereo not drawn) | -15.2% |
| C[C@@H]1CN(C(=O)c2cc(Cn3cnc4ccccc43)on2)C[C@H](C)O1 | -5.79% |
| O=C(NCC1CCN(Cc2cc3ccccc3[nH]2)C1)C1CCCCC1 (stereo not drawn) | -19.6% |
| COc1ccc(-n2nc(C(C)C)nc2Cn2cncn2)cc1 | -8.35% |
| CSCCCN1CCC(c2nnc(Cn3ccnc3)n2C2CC2)CC1 | -0.0518% |
| CCCN1CCC(Cc2nc(CN3CCN(C)CC3)no2)CC1 | -5.37% |
| CC1=N[C@@]2(CC[C@@H]3CN(CC(C)C)C[C@@H]32)C(=O)N1CC(C)C | -13.7% |
| O=C(NCC1OCCc2cn(CC3CCOCC3)nc21)c1ccncc1 (stereo not drawn) | -10.6% |
| COCCNC(=O)[C@H]1C[C@@H]2CCN(Cc3nccs3)C[C@H]2O1 | -13.5% |
| Cc1ncccc1NC(=O)[C@H]1C[C@@H]2CCN(Cc3ccsc3)C[C@H]2O1 | -13.8% |
